According to patent US20250367166A1, “NEXT GENERATION DIPROVOCIMS THAT ACTIVATE THE INNATE AND ADAPTIVE IMMUNE RESPONSE” (The Scripps Research Institute, priority 2022, published 2025):

What was measured:
TLR1/TLR2 [1] = target: TLR1/TLR2 (Homo sapiens, UniProt O60603+Q15399); experiment: TNF-α release from PMA-differentiated human THP-1 cells (ELISA); settings: for Emax: THP-1, 4 h, read-out: Efficacy (magnitude) of response versus diprovocim-1 (100%), THP-1; for EC50: read-out: EC50 (nM) (THP-1): EC50 TNF-α release from human THP-1 cells, Table 1;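 for all read-outs here: cells exposed to graded compound concentrations for 4 h, TNF-α quantified in supernatant, LPS as positive and DMSO as negative control, values are duplicate means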
Chain of TLR1/TLR2 (Homo sapiens, UniProt O60603+Q15399) (Q15399 25-786): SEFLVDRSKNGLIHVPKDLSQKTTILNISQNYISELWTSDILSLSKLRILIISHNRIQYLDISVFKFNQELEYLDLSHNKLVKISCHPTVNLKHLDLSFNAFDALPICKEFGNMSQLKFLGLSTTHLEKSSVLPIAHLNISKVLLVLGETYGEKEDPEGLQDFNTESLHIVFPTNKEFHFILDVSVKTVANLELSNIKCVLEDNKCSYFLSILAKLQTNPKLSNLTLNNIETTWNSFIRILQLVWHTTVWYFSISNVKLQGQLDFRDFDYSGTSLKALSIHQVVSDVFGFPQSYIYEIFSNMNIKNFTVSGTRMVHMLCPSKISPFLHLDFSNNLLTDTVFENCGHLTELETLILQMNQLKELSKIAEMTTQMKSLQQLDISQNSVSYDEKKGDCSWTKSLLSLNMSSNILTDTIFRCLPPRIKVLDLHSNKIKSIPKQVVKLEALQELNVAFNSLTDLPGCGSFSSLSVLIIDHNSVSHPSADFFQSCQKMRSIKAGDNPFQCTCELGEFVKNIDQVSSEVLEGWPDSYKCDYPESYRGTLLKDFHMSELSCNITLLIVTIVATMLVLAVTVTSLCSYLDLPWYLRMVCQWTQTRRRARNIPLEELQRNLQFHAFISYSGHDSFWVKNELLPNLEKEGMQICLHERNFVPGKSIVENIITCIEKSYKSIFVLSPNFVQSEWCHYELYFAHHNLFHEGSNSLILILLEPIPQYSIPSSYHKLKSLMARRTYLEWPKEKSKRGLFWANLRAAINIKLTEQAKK
Chain of TLR1/TLR2 (Homo sapiens, UniProt O60603+Q15399) (O60603 21-784): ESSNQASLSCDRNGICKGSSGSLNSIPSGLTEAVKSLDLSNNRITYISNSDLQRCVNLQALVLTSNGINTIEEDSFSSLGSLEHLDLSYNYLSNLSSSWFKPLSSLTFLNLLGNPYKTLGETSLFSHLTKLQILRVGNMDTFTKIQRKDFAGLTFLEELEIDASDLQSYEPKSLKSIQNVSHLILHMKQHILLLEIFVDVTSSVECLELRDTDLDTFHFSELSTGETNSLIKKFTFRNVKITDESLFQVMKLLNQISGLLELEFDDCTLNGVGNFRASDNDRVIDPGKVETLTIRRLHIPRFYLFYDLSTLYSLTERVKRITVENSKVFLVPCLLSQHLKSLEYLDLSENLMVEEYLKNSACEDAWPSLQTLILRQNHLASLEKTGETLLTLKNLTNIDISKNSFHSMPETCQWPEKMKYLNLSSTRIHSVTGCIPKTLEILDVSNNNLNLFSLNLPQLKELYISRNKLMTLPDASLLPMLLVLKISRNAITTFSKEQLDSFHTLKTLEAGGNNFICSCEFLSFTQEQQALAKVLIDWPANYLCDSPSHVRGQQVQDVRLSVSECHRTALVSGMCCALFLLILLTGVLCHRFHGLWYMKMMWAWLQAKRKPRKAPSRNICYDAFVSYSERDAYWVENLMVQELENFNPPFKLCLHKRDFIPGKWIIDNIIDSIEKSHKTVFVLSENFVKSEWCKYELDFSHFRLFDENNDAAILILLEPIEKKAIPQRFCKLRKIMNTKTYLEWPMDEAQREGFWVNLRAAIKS

TLR1/TLR2 [2] = target: TLR1/TLR2 (Mus musculus, UniProt Q9EPQ1+Q9QUN7); experiment: TNF-α release from thioglycolate-elicited mouse peritoneal macrophages (ELISA); settings: for Emax: 4 h, read-out: Efficacy (magnitude) of response versus diprovocim-1 (100%), mouse macrophages; for EC50: read-out: EC50 (nM) (mouse): EC50 TNF-α release from mouse macrophages, Table 1
Chain of TLR1/TLR2 (Mus musculus, UniProt Q9EPQ1+Q9QUN7) (Q9EPQ1 26-795): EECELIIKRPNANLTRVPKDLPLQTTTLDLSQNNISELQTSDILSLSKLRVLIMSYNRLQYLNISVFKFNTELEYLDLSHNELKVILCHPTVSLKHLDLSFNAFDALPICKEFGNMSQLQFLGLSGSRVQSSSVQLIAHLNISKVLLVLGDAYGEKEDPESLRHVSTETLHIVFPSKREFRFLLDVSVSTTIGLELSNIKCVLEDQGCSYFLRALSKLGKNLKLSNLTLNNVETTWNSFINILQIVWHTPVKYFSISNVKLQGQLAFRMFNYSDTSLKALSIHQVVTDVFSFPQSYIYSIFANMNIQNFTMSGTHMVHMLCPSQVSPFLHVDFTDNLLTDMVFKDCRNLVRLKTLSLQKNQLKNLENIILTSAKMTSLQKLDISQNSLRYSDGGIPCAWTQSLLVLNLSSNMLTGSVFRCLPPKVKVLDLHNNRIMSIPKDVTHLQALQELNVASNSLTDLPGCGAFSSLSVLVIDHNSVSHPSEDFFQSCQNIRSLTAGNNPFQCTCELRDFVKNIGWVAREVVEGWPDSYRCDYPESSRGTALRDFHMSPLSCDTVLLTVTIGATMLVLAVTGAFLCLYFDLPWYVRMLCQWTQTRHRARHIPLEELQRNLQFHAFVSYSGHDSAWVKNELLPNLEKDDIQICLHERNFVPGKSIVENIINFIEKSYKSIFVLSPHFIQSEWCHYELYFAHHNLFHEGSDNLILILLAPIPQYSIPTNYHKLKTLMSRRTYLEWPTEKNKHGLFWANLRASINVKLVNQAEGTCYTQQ
Chain of TLR1/TLR2 (Mus musculus, UniProt Q9EPQ1+Q9QUN7) (Q9QUN7 25-784): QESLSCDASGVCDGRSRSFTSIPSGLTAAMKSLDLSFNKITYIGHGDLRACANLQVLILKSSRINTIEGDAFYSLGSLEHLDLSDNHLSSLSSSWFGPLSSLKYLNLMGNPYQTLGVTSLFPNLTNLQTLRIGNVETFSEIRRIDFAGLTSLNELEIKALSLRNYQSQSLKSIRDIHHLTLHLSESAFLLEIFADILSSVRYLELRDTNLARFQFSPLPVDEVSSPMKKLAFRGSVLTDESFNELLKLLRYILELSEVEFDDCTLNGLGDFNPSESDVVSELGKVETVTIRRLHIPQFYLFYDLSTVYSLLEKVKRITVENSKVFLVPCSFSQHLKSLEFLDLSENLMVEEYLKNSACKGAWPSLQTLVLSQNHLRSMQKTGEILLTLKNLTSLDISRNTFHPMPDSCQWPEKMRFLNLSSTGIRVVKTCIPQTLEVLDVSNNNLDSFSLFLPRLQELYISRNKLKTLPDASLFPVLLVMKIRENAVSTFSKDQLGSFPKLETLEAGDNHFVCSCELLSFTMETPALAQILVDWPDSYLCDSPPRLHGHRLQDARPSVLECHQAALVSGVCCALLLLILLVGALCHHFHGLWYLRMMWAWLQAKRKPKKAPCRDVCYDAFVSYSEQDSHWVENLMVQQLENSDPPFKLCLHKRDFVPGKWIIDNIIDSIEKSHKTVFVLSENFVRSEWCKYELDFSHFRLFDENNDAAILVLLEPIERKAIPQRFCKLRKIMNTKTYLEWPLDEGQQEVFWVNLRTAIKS

| SMILES | Emax (TLR1/TLR2 [1]) | EC50 (TLR1/TLR2 [1]) | Emax (TLR1/TLR2 [2]) | EC50 (TLR1/TLR2 [2]) |
| --- | --- | --- | --- | --- |
| CC(C)(C)OC(=O)NCCCCCCCCCCCCNC(=O)[C@@H]1CN(C(=O)c2ccc(C(=O)N3C[C@@H](C(=O)N[C@H]4C[C@@H]4c4ccccc4)[C@H](C(=O)N[C@H]4C[C@@H]4c4ccccc4)C3)cc2)C[C@H]1C(=O)N[C@H]1C[C@@H]1c1ccccc1 [Compound 17, tert-Butyl (12-((3S,4S)-1-(4-((3S,4S)-3,4-bis(((1S,2R)-2-phenylcyclopropyl)carbamoyl)-pyrrolidine-1-carbonyl)benzoyl)-4-(((1S,2R)-2-phenylcyclopropyl)carbamoyl)pyrrolidine-3-carboxamido)dodecyl)carbamate] | 70% | 0.18 nM | 120% | 2.8 nM |
| CC(C)(C)OC(=O)NCC(=O)NCCCCCCCCCCCCNC(=O)[C@@H]1CN(C(=O)c2ccc(C(=O)N3C[C@@H](C(=O)N[C@H]4C[C@@H]4c4ccccc4)[C@H](C(=O)N[C@H]4C[C@@H]4c4ccccc4)C3)cc2)C[C@H]1C(=O)N[C@H]1C[C@@H]1c1ccccc1 [Compound 18, tert-Butyl (2-((12-((3S,4S)-1-(4-((3S,4S)-3,4-bis-(((1S,2R)-2-phenylcyclopropyl)carbamoyl)pyrrolidine-1-carbonyl)-benzoyl)-4-(((1S,2R)-2-phenyl-cyclopropyl)-carbamoyl)pyrrolidine-3-carboxamido)-dodecyl)amino)-2-oxoethyl)carbamate] | 90% | 0.33 nM | 90% | 170 nM |
| C#CCCCCCCCCCCCCNC(=O)[C@@H]1CN(C(=O)c2ccc(C(=O)N3C[C@@H](C(=O)N[C@H]4C[C@@H]4c4ccccc4)[C@H](C(=O)N[C@H]4C[C@@H]4c4ccccc4)C3)cc2)C[C@H]1C(=O)N[C@H]1C[C@@H]1c1ccccc1 [Compound 19, (3S,4S)-1-(4-((3S,4S)-3,4-Bis(((1S,2R)-2-phenylcyclo-propyl)carbamoyl)pyrrolidine-1-carbonyl)-benzoyl)-N^3-((1S,2R)-2-phenylcyclopropyl)-N^4-(tetradec-13-yn-1-yl)pyrrolidine-3,4-dicarboxamide] | 120% | 0.04 nM | 180% | 1.3 nM |
| [N-]=[N+]=NCCCCCCCCCCCCNC(=O)[C@@H]1CN(C(=O)c2ccc(C(=O)N3C[C@@H](C(=O)N[C@H]4C[C@@H]4c4ccccc4)[C@H](C(=O)N[C@H]4C[C@@H]4c4ccccc4)C3)cc2)C[C@H]1C(=O)N[C@H]1C[C@@H]1c1ccccc1 [Compound 20, (3S,4S)—N^3-(12-Azidododecyl)-1-(4-((3S,4S)-3,4-bis-(((1S,2R)-2-phenylcyclopropyl)carbamoyl)-pyrrolidine-1-carbonyl)benzoyl)-N^4-((1S,2R)-2-phenylcyclopropyl)-pyrrolidine-3,4-dicarboxamide] | 30% | 0.07 nM | 50% | 0.6 nM |
| O=C(NCCCCCCCCCCCCS)[C@@H]1CN(C(=O)c2ccc(C(=O)N3C[C@@H](C(=O)N[C@H]4C[C@@H]4c4ccccc4)[C@H](C(=O)N[C@H]4C[C@@H]4c4ccccc4)C3)cc2)C[C@H]1C(=O)N[C@H]1C[C@@H]1c1ccccc1 [Compound 21, (3S,4S)-1-(4-((3S,4S)-3,4-Bis(((1S,2R)-2-phenyl-cyclopropyl)carbamoyl)pyrrolidine-1-carbonyl)-benzoyl)-N^3-(12-mercaptododecyl)-N^4-((1S,2R)-2-phenyl-cyclo-propyl)pyrrolidine-3,4-dicarboxamide] | – | 0.5 nM | – | 5 nM |
| O=C(NCc1ccccc1)[C@@H]1CN(C(=O)c2ccc(C(=O)N3C[C@@H](C(=O)N[C@H]4C[C@@H]4c4ccccc4)[C@H](C(=O)N[C@H]4C[C@@H]4c4ccccc4)C3)cc2)C[C@H]1C(=O)N[C@H]1C[C@@H]1c1ccccc1 [Compound 22, (3S,4S)—N^3-Benzyl-1-(4-((3S,4S)-3,4-bis(((1S,2R)-2-phenylcyclopropyl)carbamoyl)pyrrolidine-1-carbonyl)-benzoyl)-N^4-((1S,2R)-2-phenylcyclopropyl)pyrrolidine-3,4-dicarboxamide] | – | 7 nM | – | 50 nM |
| O=C(NCCc1ccccc1)[C@@H]1CN(C(=O)c2ccc(C(=O)N3C[C@@H](C(=O)N[C@H]4C[C@@H]4c4ccccc4)[C@H](C(=O)N[C@H]4C[C@@H]4c4ccccc4)C3)cc2)C[C@H]1C(=O)N[C@H]1C[C@@H]1c1ccccc1 [Compound 23, (3S,4S)-1-(4-((3S,4S)-3,4-Bis(((1S,2R)-2-phenyl-cyclopropyl)carbamoyl)pyrrolidine-1-carbonyl)-benzoyl)-N^3-phenethyl-N^4-((1S,2R)-2-phenylcyclo-propyl)pyrrolidine-3,4-dicarboxamide] | – | 1.5 nM | – | 30 nM |
| O=C(NCc1ccc(F)cc1)[C@@H]1CN(C(=O)c2ccc(C(=O)N3C[C@@H](C(=O)N[C@H]4C[C@@H]4c4ccccc4)[C@H](C(=O)N[C@H]4C[C@@H]4c4ccccc4)C3)cc2)C[C@H]1C(=O)N[C@H]1C[C@@H]1c1ccccc1 [Compound 24, (3S,4S)-1-(4-((3S,4S)-3,4-Bis(((1S,2R)-2-phenylcyclo-propyl)carbamoyl)pyrrolidine-1-carbonyl)-benzoyl)-N^3-(4-fluorobenzyl)-N^4-((1S,2R)-2-phenylcyclopropyl)-pyrrolidine-3,4-dicarboxamide] | – | 2 nM | – | 30 nM |
| O=C(NCCc1ccc(F)cc1)[C@@H]1CN(C(=O)c2ccc(C(=O)N3C[C@@H](C(=O)N[C@H]4C[C@@H]4c4ccccc4)[C@H](C(=O)N[C@H]4C[C@@H]4c4ccccc4)C3)cc2)C[C@H]1C(=O)N[C@H]1C[C@@H]1c1ccccc1 [Compound 25, (3S,4S)-1-(4-((3S,4S)-3,4-Bis(((1S,2R)-2-phenylcyclo-propyl)carbamoyl)pyrrolidine-1-carbonyl)-benzoyl)-N^3-(4-fluorophenethyl)-N^4-((1S,2R)-2-phenylcyclopropyl)-pyrrolidine-3,4-dicarboxamide] | – | 0.5 nM | – | 1 nM |
| O=C(NCCCCCCCCc1ccc(O)cc1)[C@@H]1CN(C(=O)c2ccc(C(=O)N3C[C@@H](C(=O)N[C@H]4C[C@@H]4c4ccccc4)[C@H](C(=O)N[C@H]4C[C@@H]4c4ccccc4)C3)cc2)C[C@H]1C(=O)N[C@H]1C[C@@H]1c1ccccc1 [Compound 26, (3S,4S)-1-(4-((3S,4S)-3,4-Bis(((1S,2R)-2-phenylcyclo-propyl)carbamoyl)pyrrolidine-1-carbonyl)-benzoyl)-N^3-(8-(4-hydroxyphenyl)octyl)-N^4-((1S,2R)-2-phenylcyclo-propyl)pyrrolidine-3,4-dicarboxamide] | 90% | 0.15 nM | 380% | 2.6 nM |
| Nc1ccc(CCCCCCCCNC(=O)[C@@H]2CN(C(=O)c3ccc(C(=O)N4C[C@@H](C(=O)N[C@H]5C[C@@H]5c5ccccc5)[C@H](C(=O)N[C@H]5C[C@@H]5c5ccccc5)C4)cc3)C[C@H]2C(=O)N[C@H]2C[C@@H]2c2ccccc2)cc1 [Compound 27, (3S,4S)—N-(8-(4-Aminophenyl)octyl)-1-(4-((3S,4S)-3,4-bis(((1S,2R)-2-phenylcyclopropyl)carbamoyl)-pyrrolidine-1-carbonyl)benzoyl)-N^4-((1S,2R)-2-phenyl-cyclopropyl)-pyrrolidine-3,4-dicarboxamide] | 100% | 0.3 nM | 250% | 6 nM |
